Results from patent US6783774B1 (priority 1990, dated 2004).
Entries after “also recorded” stand apart in the source; their conditions may differ.

Columns and labels:
finger scratch bleeding = experiment: finger scratched to bleed, substance applied to bleeding site; type: in vivo, human; conditions: for black blood coagulation / black color formation: derivatives in powder or gel or liquid form; for stopping of bleeding: powder or gel or liquid form
Source text: Myself, finger little scratched, slightly bleeds.

[1] = test system: massive bleeding of femoral artery; experiment: femoral artery bleeding in rat, powder poured topically; type: in vivo
Experimental: Sufficient composition comprising powdered D,L-threo-hex-2-enono-1,4-lactone and excipients stops massive bleeding of femoral artery on contact when femoral artery of a rat is cut off In this case of artery on contact when femoral artery of a rat is cut off. In this case of artery bleeding, it is administered topically by pouring instead of spraying. […] Those white spots indicate the powder that is not yet mixed up with the blood. The gel forms first on the surface of the pond of blood, that stops the fluid moving. If stirring the blood to break through the surface film like structure that keeps the blood fluid from moving when the powder is insufficient, it will bleed again, but much slower than before pouring the powder into the bleeding area; adding sufficient powder into the blood, stirring makes the powder molecules well saturated with the hemoglobin and plasma protein molecules and thus forming the concentrated black gel like structure.

bleeding nostril = experiment: nostril bleeding in rat; type: in vivo
gastric bleeding area = experiment: bleeding area in rat after histamine-induced gastric acid secretion; type: in vivo; conditions: rat after histamine injection; topical to bleeding area
Source text: Thus this powder can treat the gastric ulcer bleeding when ingested orally.

human blood = experiment: test tube black blood coagulation of human blood
Source text: The present invention is directed to a method for stopping bleeding, comprising administering powdered D,L-threo-hex-2-enono-1,4-lactone tablets thereof to the wound site in an amount of 0.1568 grams for every milliliter of blood. This powder has a very potent coagulation action to stop bleeding when spraying topically on the bleeding area for any normal or diseased patients. When the powder comes in contact with the blood, the black tar like material is formed, and later becomes solid. The amount of the powder that is needed to react completely with the blood is proportional to the amount of the blood that comes out of the blood vessels. […] The artery bleeding needs much more this powder of interest. […] This is the same for normal, colon cancer and hemophilia patients; 1 ml of normal blood needs 0.1568 grams of D,L-threo-hex-2-enono-1,4-lactone powder, 1 ml of colon cancer needs 0.1568 grams of D,L-threo-hex-2-enono-1,4-lactone, 1 ml of hemophilia blood needs 0.1568 grams of D,L-threo-hex-2-enono-1,4-lactone. Sufficient powdered D,L-threo-hex-2-enono-1,4-lactone is particularly useful to stop bleeding in the case of diffuse capillary oozing and mistakenly cut off artery or arteries that can not be found during massive bleeding so as to save the patients's lives therefor. When D,L-threo-hex-2-enono-1,4-lactone is absorbed into the system, it is good for health by making the leucocytes stronger and slowing the aging process etc. However, at the end of operation before closure, the excessive black tar gel like material can be wiped away with Ringer's solution. Normal, liver Disease, Colon Cancer and Hemophilia Blood When tested in the tube, 1 milliliter of human blood requires 0.1568 grams of a composition comprising powdered D,L-threo-hex-2-enono-1,4-lactone to form black blood coagulation by shaking the tube with hand or stirrer machine. It takes 6 minutes to cause the black blood coagulation unmobile in the test tube for normal, liver diseases, colon cancer and hemophilia blood respectively.

venous bleeding = experiment: vein bleeding in rat, one vein cut off; type: in vivo
[2] = test system: surgical / dental bleeding; experiment: clinical evidence: topical powder on surgical and dental bleeding in patients; type: in vivo, human; conditions: person
Experimental: Person, scalp tumor excision, massive bleeding when the tumor is excised.
Person, acute renal failure, A-V fistula formation operation, masive bleeding. The operation of stopping bleeding consists of combing the powder with pressing with gauzes. […] At the end of the operation, most of black blood coagulation is wiped out with 4×4 gauze, and rinsed with Ringer's solution. It takes totally 5 minutes to stop the bleeding completely, as the surgeon keeps wiping away the coagulation. The patient's conditions are particularly well, better than without using this powder.
Person, skin contracture on the palm, which needs to be removed, and it requires skin graft. When the skin graft is removed from the hand, massive bleeding occurs. On applying sufficient powder to the bleeding area topically, it appears black coagulation on contact. […] Those that appears more black area indicate the more powder mixed up with the blood. Suture going on.
Person, paraanal excision, bleeding when it is opened up. […] Those that appears white are the powder that are not mixed up with the blood. Suture going on.
Person, paranal abscess Excision, massive bleeding when it is opened. […] The white color is the powder instantly not mixed up with the blood yet. Lastly, insert the long gauze into the anus.
Person, chronic hepatitis, has bleeding tendency, extraction of teeth causes massive bleeding.

capillary bleeding = capillary bleeding in rat, one capillary cut off; type: in vivo

O=C1OC(C(O)CO)C(O)=C1OP(=O)(O)O [D,L-threo-hex-enono-1,4-lactone-2-phosphate]
black blood coagulation / black color formation (finger scratch bleeding): the black blood coagulation was formed
stopping of bleeding (finger scratch bleeding): bleeding was stopped on contact

CCCCCCCCCCCCCCCC(=O)OCC(O)C1OC(=O)C(O)=C1O [D,L-threo-hex-2-enono-1,4-lactone-6-palimitate]
black blood coagulation / black color formation (finger scratch bleeding): the black blood coagulation was formed
stopping of bleeding (finger scratch bleeding): bleeding was stopped on contact

D,L-threo-hex-2-enono-1,4-lactone-2-propane
black blood coagulation / black color formation (finger scratch bleeding): the black blood coagulation was formed
stopping of bleeding (finger scratch bleeding): bleeding was stopped on contact

O=C1OC(C(O)CO)C(O)=C1OC(=O)c1ccccc1 [D,L-threo-hex-2-enono-1,4-lactone-2-benzoate]
black blood coagulation / black color formation (finger scratch bleeding): the black blood coagulation was formed
stopping of bleeding (finger scratch bleeding): bleeding was stopped on contact

O=C1OC(C(O)CO)C(O)=C1O [D,L-threo-hex-2-enono-1,4-lactone]
bleeding after sticky tar like structure is wiped away ([1]; after 5-6 minutes): no bleeding at all
formation of black tar like material ([1]; as soon as powder contacts the blood): formed in one second
time to stop bleeding ([1]; rat femoral artery bleeding, sufficient powder): within one second
amount of powder usually sufficient to stop bleeding ([1]; rat femoral artery cut off, poured topically, amount varies with rats): 0.1344 grams
amount of powder applied that stops bleeding (bleeding nostril; rat nostril cut slightly): 0.0037 grams
stopping of bleeding (bleeding nostril; rat nostril, 0.0037 grams): the bleeding stops on contact
black coagulation formation (gastric bleeding area): the black coagulation formed, but slower than normal
black blood coagulation / black color formation (finger scratch bleeding): the black color forms on contact
time after which mixture does not move by shaking or pouring (human blood; 0.1568 grams per 1 ml normal or diseased human blood): 6 min
time to cause black blood coagulation unmobile in the test tube (human blood; colon cancer blood): 6 min
time to cause black blood coagulation unmobile in the test tube (human blood; hemophilia blood): 6 min
time to cause black blood coagulation unmobile in the test tube (human blood; liver diseases blood): 6 min
time to cause black blood coagulation unmobile in the test tube (human blood; normal blood): 6 min
amount needed (human blood; per 1 ml of colon cancer blood): 0.1568 grams
amount needed (human blood; per 1 ml of hemophilia blood): 0.1568 grams
amount needed (human blood; per 1 ml of normal blood): 0.1568 grams
amount required to form black blood coagulation (human blood; per 1 ml of normal or diseased human blood, test tube): 0.1568 grams
bleeding after black coagulation is wiped away (venous bleeding; about 1½ minutes after wiping away): no more bleeding
amount of powder needed to stop bleeding (venous bleeding; rat, one vein cut off): about 0.0224 grams
stopping of bleeding (venous bleeding; rat, one venous bleeding): stop bleeding on contact; also recorded: within one second
time to stop the bleeding completely ([2]; A-V fistula plasty, acute renal failure, powder plus gauze pressing, coagulation repeatedly wiped away): 5 min
stopping of bleeding ([2]; extraction of teeth, chronic hepatitis, bleeding tendency): the bleeding in the socket stops on contact
stopping of bleeding ([2]; extraction of tooth): the bleeding stops on contact
persistence of stopped bleeding after wiping out black coagulation ([2]; extraction of tooth, wiped out in 10 seconds): stopped bleeding still persisted
black blood coagulation formation ([2]; paraanal abscess excision, massive bleeding, sprayed): the black color is formed on contact
stopping of bleeding ([2]; paraanal abscess excision, sprayed): it stops bleeding by forming black blood coagulation on contact
stopping of bleeding ([2]; scalp tumor excision, massive bleeding, sprayed): the bleeding atops on contact
stopping of bleeding ([2]; skin contracture excision with skin graft, massive bleeding): Bleeding stops at the same time as the black coagulation forms
bleeding after adding the powder (capillary bleeding; after 1 minute from adding the powder): no more bleeding at all
stopping of bleeding (capillary bleeding; rat, one capillary bleeding): stops the bleeding on contact; also recorded: within one second
amount of powder that stops bleeding (capillary bleeding; rat, one capillary cut off): about 0.0112 grams
